Test results as given in patent publication US10920506B2, “Methods for wellbore milling operations” (STEP ENERGY SERVICES LTD., priority 2018, dated 2021).

Experiments:
[1] = IBDU dissolution time with citric acid accelerator (Accelerator HT); type: physicochemical; conditions: 2 bag pill, 45 kg/m3 IBDU in water or brine
Description: (§1) Operations: • When milling in an underpressured well (i.e. hydrostatic pressure is greater than bottom hole pressure), or when there are indications of possible or actual lost circulation. • Add two bags of 100 Mesh IBDU such as STEPvert LT™ available from STEP Energy Services Ltd. to fluid in a displacement tank (45 kg/m^3), engage agitation paddle to maximum RPM (if paddle is not spinning fast enough to mix fluid, increase paddle speed) to ensure mixing. Continue mixing or, as noted above, displace while IBDU is added. • To avoid the IBDU settling out prior to arriving downhole, adjust the fluid if necessary to increase the carrying capacity of the fluid such that solid IBDU is able to remain suspended for the period of time it takes to get downhole. This may be achieved by pump rate and/or addition of viscosifiers. Thus, to better suspend solids: • A gelling agent is added: For example liquid gel hydroxyethyl cellulose 5 L/m^3 (2 kg/m^3 if dry gel) is added to the displacement tank with a target hydration time of 3 minutes; and/or • Slowly pour IBDU into the mixing tub while displacing to ensure no product settles out. • Add a degradation accelerator if needed. Consider Table 1 where IBDU solubility is summarized with and without a citric acid accelerator based on 45 kg/m3 loading of IBDU in water or brine:
• Generally if the formation temperature is less than 90° C., use a degradation accelerator, such as a resin coated citric acid such as Accelerator HT™ available from STEP Energy Services Ltd. The citric acid reduces pH in order to reduce degradation time of the IBDU. The resin coating ensures that the citric acid substantially will not begin to act until it reaches formation temperature. The resin breaks down to expose the acid and the acid then reduces pH and expedites degradation. • The pill of the IBDU, possibly including degradation accelerator, is launched. If a twin pump is employed, pump only through one fluid end and isolate the idle side. This ensures diverter only enters one side of plumbing. This is an operational efficiency, where only one fluid end is exposed to diverter in case it collects in large quantities and holds a valve and seat open. By always keeping one side “clean” (no solids) operational risks are mitigated. • Maintain a minimum rate of at least about 0.2 m^3/min or possibly about 0.4 m^3/min through the single fluid end (higher rate is better to aid in carrying solids). If fluid is comingled with gas such as nitrogen, lower rates may be used. […] This ensures the fluid end has been properly flushed. • Track volume from when pill enters the coil to when it is expected to reach open formation. Record the time that each pill reaches formation/exits coil BHA on treatment report (include surface iron in volume calculation). In case a large pressure event occurs when the pill exits the downhole pump, only one pill is to be inside coil at any given time.

[2] = IBDU solubility without accelerator, 2 bag STEPvert LT diversion pill in water or brine; type: physicochemical; conditions: 45 kg/m3 loading of IBDU in water or brine
Description: as §1, with “brine: […]” for “brine:”

[3] = 50° C., Accelerator HT Loading 5 kg
[4] = 60° C., Accelerator HT Loading 4 kg
[5] = 70° C., Accelerator HT Loading 2 kg
[6] = 80° C., Accelerator HT Loading 1 kg
[7] = 90° C., Accelerator HT Loading 0 kg

SMILES: CC(C)C(NC(N)=O)NC(N)=O [STEPvert LT, isobutylidene diurea]
- 50% Dissolution Time [1, 3]: 1.5 days
- 100% Dissolution Time [1, 3]: 5 days
- 50% Dissolution Time [1, 4]: 1 days
- 100% Dissolution Time [1, 4]: 3 days
- 50% Dissolution Time [1, 5]: 1 days
- 100% Dissolution Time [1, 5]: 2 days
- 50% Dissolution Time [1, 6]: 1 days
- 100% Dissolution Time [1, 6]: 2 days
- 50% Dissolution Time [1, 7]: 0.33 days
- 100% Dissolution Time [1, 7]: 1 days
- No Accelerator Solubility, % 24 Hours ([2]; 50° C.): 14%
- No Accelerator Solubility, % 48 Hours ([2]; 50° C.): 20%
- No Accelerator Solubility, % 96 Hours ([2]; 50° C.): 32%
- No Accelerator Solubility, % 24 Hours ([2]; 60° C.): 18%
- No Accelerator Solubility, % 48 Hours ([2]; 60° C.): 24%
- No Accelerator Solubility, % 96 Hours ([2]; 60° C.): 35%
- No Accelerator Solubility, % 24 Hours ([2]; 70° C.): 32%
- No Accelerator Solubility, % 48 Hours ([2]; 70° C.): 35%
- No Accelerator Solubility, % 96 Hours ([2]; 70° C.): 51%
- No Accelerator Solubility, % 24 Hours ([2]; 80° C.): 51%
- No Accelerator Solubility, % 48 Hours ([2]; 80° C.): 96%
- No Accelerator Solubility, % 96 Hours ([2]; 80° C.): 98%
- No Accelerator Solubility, % 24 Hours ([2]; 90° C.): 89%
- No Accelerator Solubility, % 48 Hours ([2]; 90° C.): 96%
- No Accelerator Solubility, % 96 Hours ([2]; 90° C.): 98%
